Source: US20260027121A1, “LIGAND ACTING ON ADENOSINE RECEPTORS AND COMPOSITION COMPRISING SAME FOR PREVENTION, ALLEVIATION, OR TREATMENT OF OBESITYS” (FUTURE MEDICINE CO., LTD., priority 2022, published 2026)

How the values were obtained:
[1] = test system: brown adipocytes; test: Immunoblot of PKA downstream proteins (P-HSL, P-CREB) in brown adipocytes; assay type: cell-based, mouse
Description: Adipocyte precursor cells capable of differentiating into brown adipocytes were isolated from mouse brown adipose tissue. Cells were cultured in Dulbecco's modified Eagle's medium (Welgene, LM001-07) containing 10% fetal bovine serum (FBS, Gibco, 16000044) and 1% Penicillin Streptomycin (Welgene, LS202-02) at 37° C. in a humidified atmosphere with 5% CO2. When the cells reached about 100% confluency, the cells were exposed to a differentiation medium supplemented with 2.5 mM isobutyl methylxanthine (IBMX, Cayman, I5879), 0.125 mM indomethacin (Cayman, 70270), 1 μM dexamethasone (Cayman), 1 μg/mL insulin (Sigma, I9278), and 1 nM triiodothyronine (T3, Cayman, 6028) for 3 days for adipogenesis. Then, the cells were maintained in a growth medium containing 1 μg/mL insulin and 1 nM triiodothyronine (T3) for 3 days.
(§1) In the case of Western blots, the primary antibodies used for Western blots are summarized in [Table 2] above. An anti-rabbit horseradish peroxidase antibody (1:3000, Thermo Fisher, 31460) and an anti-mouse horseradish peroxidase antibody (1:3000, Jackson, 115-035-174) were used as secondary antibodies. All antibodies were diluted in a blocking buffer (5% skimmed milk or 5% bovine serum albumin in TBST). Western blot images were acquired using a Fusion Solo chemiluminescence imaging system (Vilber Lourmat) and analyzed with Evolution Capt software (version 17.03). NIH ImageJ software was used for quantification.

[2] = test system: brown adipocytes; test: Oxygen consumption rate (XFp analyzer); assay type: cell-based, mouse; details: 0.1 μM, 24 hours
Description: Oxygen consumption rate (OCR) was measured using an XFp analyzer. Cells were cultured in XF DMEM basal medium (Agilent, 103575-100, pH 7.4) supplemented with 4 mM L-glutamine (Sigma, G8540) and 25 mM D-glucose (Sigma, G7021) at 37° C. The XFp Cell Mitochondrial Stress Test Kit (Agilent, 103010-100) was prepared and calculated sequentially with optimal final concentrations of 2.5 μM oligomycin, 0.5 μM FCCP and 0.5 μM rotenone/antimycin A and basal, maximal and proton leakage. Then, the OCR was normalized to protein concentration.

[3] = test system: BAT, iWAT, and gWAT; test: TTC staining of adipose tissue (ex vivo electron transport activity); assay type: in vivo, mouse; details: mice, 1 mg·kg-1day-1 intraperitoneally, 10 days
Description: 6-week-old C57BL/6 male mice and CIDEA reporter mice were used according to the approved protocols by Institutional Animal Care and Use Committees of Seoul National University (SNU-201107-1, SNU-201221-3) for in vivo experiments. The mice were housed under a 12 h-light/12 h-dark cycle condition with free access to a normal chow diet (NCD, Purina Lab, 38057, protein: 24.52% calories, carbohydrate: 63.07% calories, and fat: 12.41% calories) and water at 22±1° C. […] Ex vivo electron transport activity associated with mitochondrial oxidative phosphorylation was evaluated by monitoring the reduction of 0.1% triphenyl tetrazolium chloride (TTC, Sigma, T8877).

[4] = test system: HFD-fed mice; test: Diet-induced obesity model (body weight, body composition, tissue weight, H&E); assay type: in vivo, mouse; details: 1 mg kg-1 once daily, 10 days
Description: (§2) For a diet-induced obesity model, mice were fed a high-fat diet (HFD)(Research Diets, D12492, protein: 20% kcal, carbohydrate: 20% kcal, and fat: 60% kcal) for 8 weeks. Then, LJ-4378 (1 mg kg-1) was injected into the mice once daily for 10 days.
Indirect calorimetry was performed using a PhenoMaster (TSE Systems) to measure expenditure (EE), VO2, VCO2, activity, and food intake. Body components were measured by nuclear magnetic resonance scanning Echo MRI-700 (Echo Medical Systems).
Mice fed a HFD were used as a diet-induced obesity model. Body weight changes were monitored during treatment, and fat and body components of the mice were measured after treatment.
For histological analysis, adipose tissue was fixed in 10% formalin and then embedded in a paraffin block. Paraffin sections were stained with hematoxylin/eosin (H&E).

[5] = test system: HFD-fed mice; test: Immunoblot of BAT and iWAT of treated obese mice; assay type: in vivo, mouse; details: 1 mg kg-1/day, 10 days
Description: Mice fed a normal chow diet (NCD) and a high-fat diet (HFD) were treated with LJ-4378 (LJ, 1 mg kg-1/day) for 10 days. (A) Immunoblot analysis of BAT (n=6, mean±SEM, ** p<0.01, **** p<0.0001). (B) Immunoblot analysis in iWAT. Tubulin was a loading control. (n=6, mean±SEM, * p<0.05, *** p<0.001, **** p<0.0001).
as §2, §1

CCCCC#Cc1nc(N)c2ncn([C@@H]3SC[C@@H](O)[C@H]3O)c2n1 [LJ-4378, 2-(6-amino-2-(hex-1-yn-1-yl)-9H-purin-9-yl)tetrahydrothiophene-3,4-diol]
P-CREB, fold increase ([1]; 0.1 μM, 24 hours, FIG. 3D): 2.32±0.05 fold | P-HSL, fold increase ([1]; 0.1 μM, 24 hours, FIG. 3D): 2.10±0.12 fold | P-HSL (serine 660) expression level, fold increase ([1]; 10^−5, 4 hours): 6.87±0.69 fold | P-HSL (serine 660) expression level, fold increase ([1]; 10^−7, 4 hours): 6.64±0.34 fold | P-HSL (serine 660) expression level, fold increase ([1]; 10^−9 M, 4 hours): 3.03±0.21 fold | P-HSL (serine 660) expression level, fold increase ([1]; 10^−11 M, 4 hours): 1.55±0.11 fold | increase of OCR related to ATP production [2]: 29.3% | increase of OCR related to basal [2]: 30.5% | increase of OCR related to maximal [2]: 49.1% | mitochondrial activity (TTC staining), fold increase in BAT [3]: 2.86±0.24 fold | mitochondrial activity (TTC staining), fold increase in gWAT [3]: 1.72±0.16 fold | mitochondrial activity (TTC staining), fold increase in iWAT [3]: 2.07±0.17 fold | reduction in body weight [4]: 8.24% | reduction in fat mass [4]: 24.18% | reduction in weight of gWAT [4]: 18.6% | reduction in weight of iWAT [4]: 30.1% | COXIV upregulation in BAT [5]: 5.91±0.23 fold | COXIV upregulation in iWAT [5]: 1.24±0.04 fold | P-CREB upregulation in BAT [5]: 1.54±0.03 fold | P-CREB upregulation in iWAT [5]: 3.86±0.12 fold | P-HSL upregulation in BAT [5]: 2.31±0.18 fold | P-HSL upregulation in iWAT [5]: 1.72±0.04 fold | UCP1 upregulation in BAT [5]: 1.33±0.06 fold | UCP1 upregulation in iWAT [5]: 3.34±0.36 fold
